Results published in article PMC3433420 (PLoS ONE, 2012).
Residues, ends and D or L forms follow the SMILES beside them.

Key:
PIK3R3-C SH2 domain = molecular target: T1, PIK3R3-C SH2 domain (Homo sapiens, UniProt Q92569); experiment: biochemical; type: binding; settings: high-confidence ErbB interactions
T1 construct: thioredoxin; made in house; host or cells: E. coli BL21(DE3)pLysS

SHC1-PTB domain = molecular target: T2, SHC1-PTB domain (Homo sapiens, UniProt P29353); experiment: FP saturation binding assay
T2 sequence (P29353 156-339 limits assumed): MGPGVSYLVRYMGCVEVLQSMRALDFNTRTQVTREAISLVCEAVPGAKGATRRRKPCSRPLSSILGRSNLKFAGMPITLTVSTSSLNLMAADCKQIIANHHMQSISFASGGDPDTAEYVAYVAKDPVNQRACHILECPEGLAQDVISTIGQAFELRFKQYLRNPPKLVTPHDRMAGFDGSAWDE

SH2 and PTB domains = molecular target: T3, SH2 and PTB domains (Homo sapiens, UniProt P29353); experiment: In-house protein microarrays (with or without 5 mM DTT), protein named per line; type: binding; settings: protein SHC1, array fabrication # 39329
T3 construct: thioredoxin; made in house; host or cells: BL21(DE3)pLysS E. coli
T3 sequence (P29353 1-583): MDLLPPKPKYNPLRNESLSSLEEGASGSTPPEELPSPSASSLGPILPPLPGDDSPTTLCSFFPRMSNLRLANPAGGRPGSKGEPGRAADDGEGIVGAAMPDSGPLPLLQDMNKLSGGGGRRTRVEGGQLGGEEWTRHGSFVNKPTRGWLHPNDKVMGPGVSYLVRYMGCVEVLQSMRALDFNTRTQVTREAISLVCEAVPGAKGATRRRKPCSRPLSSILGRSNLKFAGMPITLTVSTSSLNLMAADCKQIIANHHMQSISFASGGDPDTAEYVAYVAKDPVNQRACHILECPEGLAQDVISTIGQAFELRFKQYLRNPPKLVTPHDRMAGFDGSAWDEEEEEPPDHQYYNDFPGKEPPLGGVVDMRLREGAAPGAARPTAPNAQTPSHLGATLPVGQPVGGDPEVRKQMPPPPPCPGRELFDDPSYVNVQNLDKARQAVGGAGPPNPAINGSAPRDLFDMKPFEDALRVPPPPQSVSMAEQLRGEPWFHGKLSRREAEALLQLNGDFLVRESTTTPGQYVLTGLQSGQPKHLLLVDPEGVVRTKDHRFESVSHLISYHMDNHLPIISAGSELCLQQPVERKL
Summary of the method: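 KD values come from rhodamine fluorescence of duplicate spots after subtraction of a thioredoxin control. Domains were printed at ~40 µM on aldehyde slides, blocked 1 h at room temperature in pH 7.8 HEPES/KCl buffer with 5 mM DTT and 1% BSA, then peptide-probed.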

GRB7 SH2 domain = GRB7 SH2 domain (Homo sapiens, UniProt Q14451); experiment: FP saturation binding assay
Chain of GRB7 SH2 domain (Q14451 431-527 limits assumed): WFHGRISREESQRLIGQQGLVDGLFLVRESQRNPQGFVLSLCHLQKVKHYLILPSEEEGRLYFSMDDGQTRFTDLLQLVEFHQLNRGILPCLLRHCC

CC(C)C[C@H](NC(=O)[C@H](Cc1ccc(OP(=O)(O)O)cc1)NC(=O)[C@H](CCC(=O)O)NC(=O)[C@H](CCC(=O)O)NC(=O)[C@H](C)NC(=O)[C@@H](N)CC(=O)O)C(=O)N[C@H](C(=O)N1CCC[C@H]1C(=O)N[C@@H](CCC(N)=O)C(=O)N[C@@H](CCC(N)=O)C(=O)NCC(=O)N[C@@H](Cc1ccccc1)C(=O)N[C@@H](CC(=O)O)C(=O)O)C(C)C [ErbB2 1023 13-mer] (HELM PEPTIDE1{D.A.E.E.[O=C([C@H](Cc1ccc(OP(=O)(O)O)cc1)N[*:1])[*:2]].L.V.P.Q.Q.G.F.D}$$$$V2.0)
Kd (PIK3R3-C SH2 domain; Protein PIK3R3-C, FP saturation binding, mean over replicate hits): 5.8 µM

CC(C)C[C@H](NC(=O)[C@H](CC(N)=O)NC(=O)[C@@H](N)CC(=O)O)C(=O)N[C@@H](Cc1ccc(O)cc1)C(=O)N[C@@H](Cc1ccc(OP(=O)(O)O)cc1)C(=O)N[C@@H](Cc1c[nH]c2ccccc12)C(=O)N[C@@H](CC(=O)O)C(=O)N[C@@H](CCC(N)=O)C(=O)N[C@@H](CC(=O)O)C(=O)N1CCC[C@H]1C(=O)N1CCC[C@H]1C(=O)N[C@@H](CCC(=O)O)C(=O)N[C@@H](CC(=O)O)C(=O)O [ErbB2 1222 13-mer] (HELM PEPTIDE1{D.N.L.Y.[O=C([C@H](Cc1ccc(OP(=O)(O)O)cc1)N[*:1])[*:2]].W.D.Q.D.P.P.E.D}$$$$V2.0)
Kd (SHC1-PTB domain): 2.96 µM

CC(C)C[C@H](NC(=O)[C@@H]1CCCN1)C(=O)N[C@@H](CCC(N)=O)C(=O)N[C@@H](CCCNC(=N)N)C(=O)N[C@@H](Cc1ccc(OP(=O)(O)O)cc1)C(=O)N[C@@H](CO)C(=O)N[C@@H](CCC(=O)O)C(=O)N[C@@H](CC(=O)O)C(=O)N1CCC[C@H]1C(=O)N[C@H](C(=O)N[C@H](C(=O)N1CCC[C@H]1C(=O)N[C@@H](CC(=O)O)C(=O)O)C(C)C)[C@@H](C)O [ErbB2 pY1112] (HELM PEPTIDE1{P.L.Q.R.[O=C([C@H](Cc1ccc(OP(=O)(O)O)cc1)N[*:1])[*:2]].S.E.D.P.T.V.P.D}$$$$V2.0)
Kd (SH2 and PTB domains; PM assay replicate # 39331): 1.26 µM | Kd (SH2 and PTB domains; PM assay replicate # 39336): 3.06 µM

CC(C)C[C@H](NC(=O)[C@@H]1CCCN1C(=O)[C@H](C)NC(=O)[C@@H](NC(=O)[C@H](Cc1ccc(OP(=O)(O)O)cc1)NC(=O)CNC(=O)[C@H](CC(=O)O)NC(=O)[C@@H](NC(=O)[C@@H](N)CCC(=O)O)[C@@H](C)O)C(C)C)C(=O)N[C@H](C(=O)N[C@@H](CS)C(=O)N[C@@H](CO)C(=O)N[C@@H](CC(=O)O)C(=O)O)[C@@H](C)O [ErbB2 pY1127]
Kd (SH2 and PTB domains; PM assay replicate # 39336): 0.98 µM | Kd (SH2 and PTB domains; PM assay replicate # 39337): 0.82 µM

CSCC[C@H](NC(=O)[C@H](Cc1ccc(OP(=O)(O)O)cc1)NC(=O)[C@H](CCC(=O)O)NC(=O)[C@H](Cc1ccc(O)cc1)NC(=O)CNC(=O)[C@@H](N)CC(C)C)C(=O)N[C@@H](CC(=O)O)C(=O)N[C@H](C(=O)NCC(=O)N[C@@H](CO)C(=O)N[C@@H](CC(=O)O)C(=O)N[C@@H](CC(C)C)C(=O)N[C@@H](CC(=O)O)C(=O)O)C(C)C [ErbB3 1224 13-mer] (HELM PEPTIDE1{L.G.Y.E.[O=C([C@H](Cc1ccc(OP(=O)(O)O)cc1)N[*:1])[*:2]].M.D.V.G.S.D.L.D}$$$$V2.0)
Kd (PIK3R3-C SH2 domain; protein PIK3R3-C, FP, mean of replicate hits): 6.11 µM | Kd (SHC1-PTB domain): 5.27 µM

CC(C)C[C@H](NC(=O)[C@H](Cc1ccc(OP(=O)(O)O)cc1)NC(=O)[C@H](CC(C)C)NC(=O)[C@@H]1CCCN1C(=O)[C@H](CCC(=O)O)NC(=O)[C@H](CC(N)=O)NC(=O)[C@@H](NC(=O)[C@H](Cc1ccc(O)cc1)NC(=O)[C@H](CCC(=O)O)NC(=O)[C@H](CC(=O)O)NC(=O)[C@@H](N)CCC(=O)O)C(C)C)C(=O)N[C@@H](CC(N)=O)C(=O)N[C@H](C(=O)N[C@@H](Cc1ccccc1)C(=O)N[C@@H](C)C(=O)N[C@@H](CC(N)=O)C(=O)N[C@H](C(=O)N[C@@H](CC(=O)O)C(=O)O)[C@@H](C)O)[C@@H](C)O [ErbB4 1208 18-mer] (HELM PEPTIDE1{E.D.E.Y.V.N.E.P.L.[O=C([C@H](Cc1ccc(OP(=O)(O)O)cc1)N[*:1])[*:2]].L.N.T.F.A.N.T.D}$$$$V2.0)
Kd (GRB7 SH2 domain; Mean KD, protein GRB7, high-confidence ErbB interactions, mean of replicate hits): 9.99 µM

DNLYpYWDQDPPEd [ErbB2 pY1222]
interaction with GRB7 on the FP platform (GRB7 SH2 domain; peptides queried on both FP and PM platforms): only displayed interactions with GRB7 from the PM platform
